Measurements reported in patent US7910579B2, “Benzoxazole derivatives” (Tohoku University, priority 2006, dated 2011).

Assays:
[1] = molecular target: T1, amyloid β protein in the brain section of an Alzheimer disease patient (Homo sapiens, UniProt P05067); experiment: Staining test on a brain section of an Alzheimer disease patient: amyloid β protein; format: binding; details: for Binding to (staining of) amyloid β protein in the brain section of an Alzheimer disease patient: 100 μM solution in 50% ethanol, 10 minutes, paraffin brain section; for Specificity to amyloid β: statement in the description of formulae (II) to (VI)
T1 construct: from tissue; host or cells: paraffin-embedded temporal lobe and hippocampus of Alzheimer disease patients
T1 sequence (P05067 672-713 limits assumed): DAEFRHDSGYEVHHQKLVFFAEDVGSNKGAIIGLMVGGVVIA
Source text: (§1) (1) Brain specimens at the temporal lobe and the hippocampus of patients to which a definitive diagnosis of Alzheimer disease had been given, and those of normal senile persons were used. The specimens were given by our coworker, Fukushimura Hospital, Longevity Medicine Institute, and we were given their consent of use of the specimens for our study purpose by the bereaved of the patients (Fukushimura Hospital Ethical Review Board Approval No. 20).
(§2) (2) The paraffin-embedded brain tissue was cut Into slices having a thickness of 6 μm or 8 μm, and extended and dried on a slide. The paraffin brain section was steeped for paraffin removal in xylene twice for 10 minutes, 100% ethanol twice for 5 minutes, 90% ethanol for 5 minutes and running water for 10 minutes in that order.
(§3) (3) For pretreatment prior to the staining treatment with a compound of the invention, the sections were steeped for autofluorescence removal with lipofuscin. First, the paraffin-removed sections were dipped in 0.25% KMnO4 solution for 20 minutes. These were washed with PBS, twice for 2 minutes, then dipped in 0.1% K2S2O5/oxalic acid solution for about 5 seconds, and then further washed with PBS, three times for 2 minutes.
(§4) (4) About 150 μl of a 100 μM solution of a compound of the invention dissolved in 50% ethanol was dropwise applied to the section and reacted for 10 minutes. After dipped five times in tap water, the section was entrapped with Fluor Save Reagent (Calbiochem), and analyzed through microscopy with a fluorescence microscope (Nikon, Eclipse 80i). The images were taken with a digital camera (Nikon Dxm 1200F or Photometrics' Cool SNAP ES).
(1) After paraffin removal, the sections were washed in distilled water, twice for 2 minutes. Then, using ImmunoPen, the tissue was marked with a surrounding line; about 150 μl of formic acid was dropwise applied to the section and statically left at room temperature for 5 minutes. The section was washed with tap water for 5 minutes, then dipped in cold PBS-Tween 20 for 2 minutes, and thereafter about 150 μl of 0.05% trypsin solution was dropwise applied to it and reacted at 37° C. for 15 minutes.
(2) In an ice bath, this was washed with cold PBS-Tween 20, twice for 5 minutes, and then 2 drops of blocking serum were applied to it and reacted at 37° C. for 30 minutes. Excess water was removed, and then about 150 μl of a specific antibody to amyloid β protein, 6F/3D (by DAKO, 1/50 dilution) was dropwise applied to it, and reacted at 37° C. for 1 hour.
(3) Further, this was washed with cold PBS-Tween 20, 5 times for 2 minutes, and then 2 drops of an anti-mouse IgG (H+L), goat, biotin-binding solution were applied to it and reacted at 37° C. for 1 hour. Then, this was washed with cold PBS-Tween 20, three times for 2 minutes, and 2 drops of an ABC solution (streptoavidin-biotin-peroxidase composite solution) were applied to it, and left statically as such for 30 minutes. Again this was washed with cold PBS-Tween 20, three times for 2 minutes, and then about 150 μl of a DAB solution (10 mg of DAB was dissolved in 20 ml of 0.05 mol/liter tris-HCl buffer, and just before use, 100 μl of 3% hydrogen peroxide water was added to it) was dropwise applied to it for sufficiently staining it. Then, this was washed with distilled water for 1 minute to stop the reaction, then entrapped and observed through microscopy.

[2] = Acute Toxicity Test; format: in vivo; details: Crj:CD1 male mice, tail vein, observed for 7 days
Method: The compounds of the invention were tested for their acute toxicity through intravenous administration thereof to mice. Four Crj:CD1 male mice formed one test group, and some test groups of those mice were used (the mean body weight of the mice of each group was from 31 to 32 g). A test compound was dissolved in a mixture of 1 N HCl, polyethylene glycol-400 and distilled water, or dissolved in DMSO, and then diluted with distilled water. This was administered to each mouse via its tail vein.

[3] = molecular target: T2, Tg mouse intracerebral amyloid plaque (Homo sapiens, UniProt P05067); experiment: Investigation of transgenic (Tg) mice with amyloid deposition in their brain (fluorescence microscopy of brain sections after intravenous administration); format: in vivo; details: APPswe2576/Tau JPL3 mouse, 4 mg/kg intravenous, 1 hour after administration
T2 construct: from tissue; host or cells: brain of Tg mice (Tg2576 or APPswe2576/Tau JNPL3) after intravenous dosing
T2 sequence (P05067 672-713 limits assumed): as above

[4] = test system: histidine-requiring Salmonella typhimurium TA100 and TA98 strains; experiment: Mutagenicity Test (reverse mutation test); format: cell-based
Method: In view of their use, it is desirable that the compounds of the invention have no mutagenicity or have little mutagenicity to a level causing no problem. For investigating the gene mutagenesis of the compounds of the invention, herein carried out was a reverse mutation test with histidine-requiring Salmonella typhimurium TA100 and TA98 strains. Two tests were carried out. One is a test for dose determination test; and the other is for mutagenicity.
The test methods and the mutagenicity of the compounds of the invention are mentioned below. In the dose determination test, six doses of 0.160, 0.800, 4.00, 20.0, 100 and 500 μg/plate (common ratio 5) were tried.
As a result of the dose determination test, when the mutagenicity of the test compound was admitted, then the actual test for mutagenicity was carried out, using the dose capable of giving an accurate dose-reaction curve. When no mutagenicity of the test compound was admitted in the dose determination test and when the growth inhibition of the test cells was admitted therein, then the dose to present the growth inhibition was taken as the maximum dose; and when the growth inhibition was not admitted, then a dose of 5000 μg/plate was taken as the maximum dose. With that, the actual test for mutagenicity was carried out on the level of 6 doses (common ratio 2).
First, a test compound was dissolved or suspended in DMSO, then diluted in order to prepare test compound liquids having a varying concentration.
100 μl of a test compound liquid or a negative control (DMSO) solution was put into a sterilized test tube. Then, for the case in the absence of a metabolic activation system (−S9mix), 500 μl of 0.1 mol/liter sodium-phosphate buffer (pH 7.4) was added to it; and for the case in the presence of a metabolic activation system (+S9mix), 500 μl of S9mix was added to it.
Next, 100 μl of the test strain suspension that had been cultivated with shaking at 37° C. for 8 hours was added to it, and preincubated in a shaking thermostat at 37° C. for 20 minutes. After shaken, 2 ml of top agar was added to it, and the contents were mixed.
Next, the mixture was poured onto a minimal glucose agar plate medium (plate) and spread uniformly thereon, then the top agar was solidified, and the plate was transferred into a thermostat and incubated at 37° C. for 48 hours.
Then, the number of the colonies grown through reverse mutation was counted.
For counting it, […]. After area correction and miss-counting correction, the number of the colonies was computed. When the colony analyzer could not be used owing to the deposition of the test compound or the cell growth inhibition, then the number of the colonies was counted with the naked eye.
In case where the number of the colonies through reverse mutation increased two times or more that of the negative control and where the dose dependency or the reproducibility of the increase was admitted, then the tested sample was decided as positive. When the sample was is decided as positive, then the relative activity that indicates the relative comparative value of the intensity of the mutagenicity of the test compound was obtained according to the following formula: Relative Activity={(number of colonies per plate having the concentration)−(number of colonies per negative control plate)}/the value of concentration (mg/plate).

[5] = test system: neurofibrillary tangle in the brain section of an Alzheimer disease patient; experiment: Staining test on a brain section of an Alzheimer disease patient: neurofibrillary tangle; format: binding, human; details: 100 μM solution in 50% ethanol, 10 minutes, paraffin brain section
Source text: as §1, §2, §3
as §4, with “ES). […]” for “ES).”

OCC(CF)COc1ccc2nc(/C=C/c3cnc(N4CCOCC4)s3)oc2c1 (stereo not shown) [THK-727, 2-fluoromethyl-3-[2-[2-(2-morpholin-4-yl-thiazol-5-yl)-vinyl]-benzoxazol-6-yloxy]-propan-1-ol]
Binding to (staining of) amyloid β protein in the brain section of an Alzheimer disease patient [1]: white space arrow indicates amyloid β protein | Maximum Permissible Dose (mg/kg, intravenous administration) [2]: ≧10 mg/kg | Passage through the blood-brain barrier and binding to Tg mouse intracerebral amyloid plaque [3]: passed through the blood-brain barrier, and bound to the Tg mouse intracerebral amyloid plaque | Relative activity (mutagenicity) ([4]; irrespective of the absence or presence of S9mix): minus | Relative Activity in the presence of S9Mix ([4]; reverse mutation test, +S9mix): minus | Relative Activity in the absence of S9Mix ([4]; reverse mutation test, -S9mix): minus | Binding to (staining of) neurofibrillary tangle in the brain section of an Alzheimer disease patient [5]: white space arrow head indicates neurofibrillary tangle

CN1C=CC(=C/C=C2\C=Nc3ccccc32)C=C1 [THK-185, 3-[2-(1-methyl-1H-pyridin-4-ylidene)-ethylidene]-3H-indole]
Binding to (staining of) amyloid β protein in the brain section of an Alzheimer disease patient [1]: bound to the amyloid β protein | Specificity to amyloid β [1]: high specificity to amyloid β | Binding to (staining of) neurofibrillary tangle in the brain section of an Alzheimer disease patient [5]: bound to the amyloid β protein and the neurofibrillary tangle

CN(C)c1ccc(-c2nnc(-c3sc4ccccc4c3Cl)o2)cc1 [THK-258, [4-[5-(3-chloro-benzo[b]thiophen-2-yl)-[1,3,4]oxadiazol-2-yl]-phenyl]-dimethylamine]
Binding to (staining of) amyloid β protein in the brain section of an Alzheimer disease patient [1]: bound to the amyloid β protein | Specificity to amyloid β [1]: high specificity to amyloid β | Binding to (staining of) neurofibrillary tangle in the brain section of an Alzheimer disease patient [5]: bound to the amyloid β protein and the neurofibrillary tangle
